ChEMBL document CHEMBL4118021, “Studies of TAK1-centered polypharmacology with novel covalent TAK1 inhibitors” (Bioorg Med Chem, 2017)
The source made the active and inactive calls. The rule behind the calls is not given here.

Experiments:
Type in all cases: cell-based
[1] = molecular target: Small ribosomal subunit protein mS23 (Homo sapiens) (UniProt Q9Y3D9); experiment: Binding affinity to MRPS23 in human NCI-H358 cells at 1 uM by mass spectrometry based pull down assay
[2] = molecular target: Arginine--tRNA ligase, cytoplasmic (Homo sapiens) (UniProt P54136); experiment: Binding affinity to RARS in human NCI-H23 cells at 1 uM by mass spectrometry based pull down assay
Chain of Arginine--tRNA ligase, cytoplasmic (Homo sapiens) (P54136 whole entry): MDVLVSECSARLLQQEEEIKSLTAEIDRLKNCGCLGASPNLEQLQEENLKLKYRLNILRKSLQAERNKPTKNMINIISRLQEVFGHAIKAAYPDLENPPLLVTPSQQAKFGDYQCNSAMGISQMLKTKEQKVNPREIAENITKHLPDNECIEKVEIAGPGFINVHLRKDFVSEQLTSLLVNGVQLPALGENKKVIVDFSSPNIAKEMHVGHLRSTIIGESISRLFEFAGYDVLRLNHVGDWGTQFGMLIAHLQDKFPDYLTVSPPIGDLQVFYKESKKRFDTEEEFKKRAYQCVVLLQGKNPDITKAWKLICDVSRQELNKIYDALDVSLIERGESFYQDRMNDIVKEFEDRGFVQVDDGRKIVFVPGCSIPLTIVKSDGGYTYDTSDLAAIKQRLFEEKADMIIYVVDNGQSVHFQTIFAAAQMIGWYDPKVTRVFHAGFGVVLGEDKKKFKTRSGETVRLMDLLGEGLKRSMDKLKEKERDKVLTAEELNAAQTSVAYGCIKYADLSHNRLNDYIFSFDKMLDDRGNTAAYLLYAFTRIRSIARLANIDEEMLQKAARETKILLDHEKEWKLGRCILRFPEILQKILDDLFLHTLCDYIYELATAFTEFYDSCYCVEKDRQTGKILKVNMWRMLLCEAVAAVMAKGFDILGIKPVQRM

[3] = molecular target: tRNA (guanosine(18)-2'-O)-methyltransferase TARBP1 (Homo sapiens) (UniProt Q13395); experiment: Binding affinity to TARBP1 in human NCI-H358 cells at 1 uM by mass spectrometry based pull down assay
[4] = molecular target: T1, Serine/threonine-protein kinase Chk1 (Homo sapiens) (UniProt O14757); experiment: Binding affinity to CHEK1 in human NCI-H358 cells at 1 uM by mass spectrometry based pull down assay
T1 sequence (whole entry): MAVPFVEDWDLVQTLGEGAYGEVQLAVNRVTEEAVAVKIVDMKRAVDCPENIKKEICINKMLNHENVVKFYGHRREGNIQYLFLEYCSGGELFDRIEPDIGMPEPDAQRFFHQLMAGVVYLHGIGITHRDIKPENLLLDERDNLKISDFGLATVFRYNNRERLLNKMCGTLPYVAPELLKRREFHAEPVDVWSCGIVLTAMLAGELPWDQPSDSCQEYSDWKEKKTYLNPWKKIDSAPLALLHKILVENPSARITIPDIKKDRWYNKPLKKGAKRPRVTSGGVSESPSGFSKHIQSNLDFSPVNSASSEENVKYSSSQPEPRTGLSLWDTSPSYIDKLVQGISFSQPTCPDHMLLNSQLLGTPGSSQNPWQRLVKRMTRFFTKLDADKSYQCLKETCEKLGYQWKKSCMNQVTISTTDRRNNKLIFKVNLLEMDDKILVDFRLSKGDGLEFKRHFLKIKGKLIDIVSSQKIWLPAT

[5] = molecular target: 80S Ribosome (Homo sapiens) (UniProt P08865+P42677+P62753+P15880+P23396+P61247+P62701+P22090+P46782+P62081+P62241+P46781+P46783+P62280+P25398+P62277+P62263+P62841+P62244+P62249+P08708+P62269+P39019+P60866+P63220+P62266+P62847+P62851+P62854+P62979+P62857+P62273+P62861+P39023+P36578+P46777+Q02878+P18124+P62424+P62917+P32969+P27635+P62906+P62913+P30050+P26373+P40429+P50914+P61313+P18621+Q07020+Q02543+P84098+P46778+P35268+P62829+P62750+P83731+P61254+P61353+P46776+P46779+P47914+P62888+P62899+P62910+P49207+P42766+P18077+Q9Y3U8+P83881+P61927+P61513+P63173+P62891+P62945+P05388+P05386); experiment: Binding affinity to RPS17 in human NCI-H358 cells at 1 uM by mass spectrometry based pull down assay
[6] = molecular target: T2, Dual specificity mitogen-activated protein kinase kinase 7 (Homo sapiens) (UniProt O14733); experiment: Binding affinity to MAP2K7 in human NCI-H358 cells at 1 uM by mass spectrometry based pull down assay
T2 sequence (whole entry): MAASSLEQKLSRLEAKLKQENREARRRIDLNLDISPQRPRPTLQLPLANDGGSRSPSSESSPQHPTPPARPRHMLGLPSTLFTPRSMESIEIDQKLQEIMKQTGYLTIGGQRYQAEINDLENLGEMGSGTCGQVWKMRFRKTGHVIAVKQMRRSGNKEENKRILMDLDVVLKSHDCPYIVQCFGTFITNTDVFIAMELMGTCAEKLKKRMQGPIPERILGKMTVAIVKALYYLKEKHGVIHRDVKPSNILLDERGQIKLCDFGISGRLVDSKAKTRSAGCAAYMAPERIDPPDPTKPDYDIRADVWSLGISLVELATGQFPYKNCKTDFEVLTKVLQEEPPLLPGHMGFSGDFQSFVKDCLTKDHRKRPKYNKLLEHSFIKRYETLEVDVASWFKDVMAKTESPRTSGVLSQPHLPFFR

[7] = molecular target: Tropomyosin alpha-1 chain (Homo sapiens) (UniProt P09493); experiment: Binding affinity to TPM1 in human NCI-H358 cells at 1 uM by mass spectrometry based pull down assay
Chain of Tropomyosin alpha-1 chain (Homo sapiens) (P09493 whole entry): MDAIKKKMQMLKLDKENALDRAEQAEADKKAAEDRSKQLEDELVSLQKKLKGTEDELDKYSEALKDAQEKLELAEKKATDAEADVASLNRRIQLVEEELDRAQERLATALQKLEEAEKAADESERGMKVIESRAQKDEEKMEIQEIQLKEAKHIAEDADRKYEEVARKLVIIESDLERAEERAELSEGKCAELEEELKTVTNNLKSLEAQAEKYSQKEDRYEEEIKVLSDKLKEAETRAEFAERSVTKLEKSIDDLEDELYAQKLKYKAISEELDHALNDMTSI

NCI-H23 = experiment: Binding affinity to PSMA5 in human NCI-H23 cells at 1 uM by mass spectrometry based pull down assay
[8] = molecular target: Reticulon-4 (Homo sapiens) (UniProt Q9NQC3); experiment: Binding affinity to RTN4 in human NCI-H358 cells at 1 uM by mass spectrometry based pull down assay
Chain of Reticulon-4 (Homo sapiens) (Q9NQC3 whole entry): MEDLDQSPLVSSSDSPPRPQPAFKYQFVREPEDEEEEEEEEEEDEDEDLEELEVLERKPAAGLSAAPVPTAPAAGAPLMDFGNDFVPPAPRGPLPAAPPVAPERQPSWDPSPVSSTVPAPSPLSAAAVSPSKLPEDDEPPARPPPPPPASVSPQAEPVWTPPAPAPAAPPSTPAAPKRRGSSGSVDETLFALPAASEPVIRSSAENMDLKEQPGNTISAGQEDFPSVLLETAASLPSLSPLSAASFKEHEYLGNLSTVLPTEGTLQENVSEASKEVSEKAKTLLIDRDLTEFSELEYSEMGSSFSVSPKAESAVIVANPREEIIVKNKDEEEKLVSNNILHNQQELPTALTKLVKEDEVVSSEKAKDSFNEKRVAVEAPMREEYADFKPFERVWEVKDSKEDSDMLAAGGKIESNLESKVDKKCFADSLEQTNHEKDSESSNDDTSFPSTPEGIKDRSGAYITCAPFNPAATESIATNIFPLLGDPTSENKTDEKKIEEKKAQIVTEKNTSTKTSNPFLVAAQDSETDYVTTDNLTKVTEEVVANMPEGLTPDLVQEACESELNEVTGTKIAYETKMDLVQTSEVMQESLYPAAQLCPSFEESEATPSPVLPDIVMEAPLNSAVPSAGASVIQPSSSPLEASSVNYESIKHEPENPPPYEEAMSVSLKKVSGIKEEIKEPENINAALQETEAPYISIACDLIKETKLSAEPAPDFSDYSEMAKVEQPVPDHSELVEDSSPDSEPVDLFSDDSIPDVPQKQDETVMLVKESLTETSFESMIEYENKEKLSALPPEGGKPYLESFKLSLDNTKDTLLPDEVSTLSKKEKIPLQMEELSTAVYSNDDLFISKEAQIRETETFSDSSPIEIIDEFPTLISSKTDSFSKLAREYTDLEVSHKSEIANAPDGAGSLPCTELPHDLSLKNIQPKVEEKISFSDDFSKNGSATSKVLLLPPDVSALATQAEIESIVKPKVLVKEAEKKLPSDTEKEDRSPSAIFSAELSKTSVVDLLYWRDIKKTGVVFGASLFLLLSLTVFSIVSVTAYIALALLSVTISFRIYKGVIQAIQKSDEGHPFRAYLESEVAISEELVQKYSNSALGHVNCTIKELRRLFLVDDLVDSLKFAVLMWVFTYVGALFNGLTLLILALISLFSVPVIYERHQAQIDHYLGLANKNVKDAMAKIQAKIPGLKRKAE

[9] = molecular target: Mitogen-activated protein kinase 6 (Homo sapiens) (UniProt Q16659); experiment: Binding affinity to MAPK6 in human NCI-H358 cells at 1 uM by mass spectrometry based pull down assay
[10] = molecular target: Mitogen-activated protein kinase 1 (Homo sapiens) (UniProt P28482); experiment: Binding affinity to MAPK1 in human NCI-H358 cells at 1 uM by mass spectrometry based pull down assay
Chain of Mitogen-activated protein kinase 1 (Homo sapiens) (P28482 whole entry): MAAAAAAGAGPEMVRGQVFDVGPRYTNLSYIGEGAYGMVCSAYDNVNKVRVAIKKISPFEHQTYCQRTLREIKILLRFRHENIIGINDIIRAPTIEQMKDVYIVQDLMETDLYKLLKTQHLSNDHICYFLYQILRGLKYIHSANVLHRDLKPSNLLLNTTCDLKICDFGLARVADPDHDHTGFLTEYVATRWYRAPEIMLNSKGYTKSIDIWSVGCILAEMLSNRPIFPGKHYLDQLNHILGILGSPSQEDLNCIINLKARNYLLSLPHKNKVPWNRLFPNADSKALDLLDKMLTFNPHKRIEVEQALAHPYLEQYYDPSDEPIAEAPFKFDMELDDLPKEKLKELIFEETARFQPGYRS

[11] = molecular target: Calcyclin-binding protein (Homo sapiens) (UniProt Q9HB71); experiment: Binding affinity to CACYBP in human NCI-H23 cells at 1 uM by mass spectrometry based pull down assay
Chain of Calcyclin-binding protein (Homo sapiens) (Q9HB71 whole entry): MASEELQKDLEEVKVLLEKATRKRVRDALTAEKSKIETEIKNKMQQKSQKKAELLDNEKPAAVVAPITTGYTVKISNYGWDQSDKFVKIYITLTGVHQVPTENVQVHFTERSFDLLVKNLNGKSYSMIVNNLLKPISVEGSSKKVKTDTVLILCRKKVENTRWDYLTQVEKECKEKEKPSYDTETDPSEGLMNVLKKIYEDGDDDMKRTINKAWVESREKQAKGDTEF

[12] = molecular target: Small ribosomal subunit protein uS7m (Homo sapiens) (UniProt Q9Y2R9); experiment: Binding affinity to MRPS7 in human NCI-H358 cells at 1 uM by mass spectrometry based pull down assay
[13] = molecular target: 14-3-3 protein sigma (Homo sapiens) (UniProt P31947); experiment: Binding affinity to SFN in human NCI-H23 cells at 1 uM by mass spectrometry based pull down assay
Chain of 14-3-3 protein sigma (Homo sapiens) (P31947 whole entry): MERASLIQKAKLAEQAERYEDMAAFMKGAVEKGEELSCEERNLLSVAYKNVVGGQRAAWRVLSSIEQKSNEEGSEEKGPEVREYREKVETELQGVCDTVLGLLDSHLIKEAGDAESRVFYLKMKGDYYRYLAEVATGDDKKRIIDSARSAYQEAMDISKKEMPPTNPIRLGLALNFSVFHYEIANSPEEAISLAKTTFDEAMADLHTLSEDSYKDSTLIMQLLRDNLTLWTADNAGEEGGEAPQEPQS

[14] = molecular target: Kinesin-1 heavy chain (Homo sapiens) (UniProt P33176); experiment: Binding affinity to KIF5B in human NCI-H23 cells at 1 uM by mass spectrometry based pull down assay
Chain of Kinesin-1 heavy chain (Homo sapiens) (P33176 whole entry): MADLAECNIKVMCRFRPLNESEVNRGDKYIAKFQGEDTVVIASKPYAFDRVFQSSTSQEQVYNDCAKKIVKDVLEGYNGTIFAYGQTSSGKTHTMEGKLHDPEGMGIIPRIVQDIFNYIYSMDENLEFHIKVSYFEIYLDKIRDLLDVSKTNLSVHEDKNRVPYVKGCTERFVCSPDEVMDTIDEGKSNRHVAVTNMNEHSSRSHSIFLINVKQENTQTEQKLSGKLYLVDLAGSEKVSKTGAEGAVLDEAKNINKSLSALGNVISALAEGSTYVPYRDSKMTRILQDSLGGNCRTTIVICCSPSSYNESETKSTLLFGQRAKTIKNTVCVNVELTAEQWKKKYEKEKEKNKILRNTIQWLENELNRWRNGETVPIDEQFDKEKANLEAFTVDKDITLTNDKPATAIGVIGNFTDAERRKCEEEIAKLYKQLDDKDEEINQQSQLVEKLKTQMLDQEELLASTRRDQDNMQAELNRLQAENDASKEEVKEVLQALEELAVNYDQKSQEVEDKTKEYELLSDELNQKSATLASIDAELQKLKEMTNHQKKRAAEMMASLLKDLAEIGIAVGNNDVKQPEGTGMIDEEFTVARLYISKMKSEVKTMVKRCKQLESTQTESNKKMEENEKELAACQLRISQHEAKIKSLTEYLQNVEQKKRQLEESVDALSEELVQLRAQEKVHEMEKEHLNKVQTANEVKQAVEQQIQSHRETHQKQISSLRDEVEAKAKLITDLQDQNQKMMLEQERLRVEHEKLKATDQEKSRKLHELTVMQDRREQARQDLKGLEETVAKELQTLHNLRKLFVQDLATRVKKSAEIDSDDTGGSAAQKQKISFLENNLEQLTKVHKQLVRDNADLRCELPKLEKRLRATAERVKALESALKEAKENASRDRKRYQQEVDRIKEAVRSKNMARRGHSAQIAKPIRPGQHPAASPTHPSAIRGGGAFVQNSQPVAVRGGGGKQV

[15] = molecular target: T2, Dual specificity mitogen-activated protein kinase kinase 7 (Homo sapiens); experiment: Binding affinity to MAP2K7 in human NCI-H23 cells at 1 uM by mass spectrometry based pull down assay
[16] = molecular target: Adenylyltransferase and sulfurtransferase MOCS3 (Homo sapiens) (UniProt O95396); experiment: Binding affinity to MOCS3 in human NCI-H358 cells at 1 uM by mass spectrometry based pull down assay
Chain of Adenylyltransferase and sulfurtransferase MOCS3 (Homo sapiens) (O95396 whole entry): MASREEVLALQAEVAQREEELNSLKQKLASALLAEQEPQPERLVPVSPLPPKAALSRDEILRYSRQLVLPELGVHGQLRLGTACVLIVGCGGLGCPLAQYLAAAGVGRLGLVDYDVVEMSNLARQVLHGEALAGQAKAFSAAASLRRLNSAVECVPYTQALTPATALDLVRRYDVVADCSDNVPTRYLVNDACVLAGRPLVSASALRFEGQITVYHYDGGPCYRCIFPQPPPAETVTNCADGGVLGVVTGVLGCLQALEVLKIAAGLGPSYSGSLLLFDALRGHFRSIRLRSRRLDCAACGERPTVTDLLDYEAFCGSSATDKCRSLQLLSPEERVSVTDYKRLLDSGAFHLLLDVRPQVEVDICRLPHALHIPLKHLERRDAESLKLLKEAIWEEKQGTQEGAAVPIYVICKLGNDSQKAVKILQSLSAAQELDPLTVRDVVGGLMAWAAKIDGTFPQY

[17] = molecular target: Cyclin-dependent kinase 4 (Homo sapiens) (UniProt P11802); experiment: Binding affinity to CDK4 in human NCI-H358 cells at 1 uM by mass spectrometry based pull down assay
[18] = molecular target: Peroxiredoxin-4 (Homo sapiens) (UniProt Q13162); experiment: Binding affinity to PRDX4 in human NCI-H23 cells at 1 uM by mass spectrometry based pull down assay
Chain of Peroxiredoxin-4 (Homo sapiens) (Q13162 whole entry): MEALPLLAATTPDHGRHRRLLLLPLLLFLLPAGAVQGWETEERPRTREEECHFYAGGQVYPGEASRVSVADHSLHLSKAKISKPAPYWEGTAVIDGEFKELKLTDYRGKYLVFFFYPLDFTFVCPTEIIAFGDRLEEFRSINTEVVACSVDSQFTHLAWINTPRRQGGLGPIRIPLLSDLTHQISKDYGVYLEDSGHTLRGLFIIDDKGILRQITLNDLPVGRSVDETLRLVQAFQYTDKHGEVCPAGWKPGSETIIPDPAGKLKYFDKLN

[19] = molecular target: Signal recognition particle 19 kDa protein (Homo sapiens) (UniProt P09132); experiment: Binding affinity to SRP19 in human NCI-H23 cells at 1 uM by mass spectrometry based pull down assay
Chain of Signal recognition particle 19 kDa protein (Homo sapiens) (P09132 whole entry): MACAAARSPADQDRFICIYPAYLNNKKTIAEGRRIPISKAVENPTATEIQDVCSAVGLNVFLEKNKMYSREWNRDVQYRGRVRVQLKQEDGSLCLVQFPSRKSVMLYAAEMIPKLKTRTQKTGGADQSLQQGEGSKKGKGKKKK

Activity [1]: Active
Activity [2]: Active
Activity [3]: Active
Activity [4]: Active
Activity [5]: Active
Activity [6]: Active
Activity [7]: Active
Activity [8]: Active
Activity [9]: Active
Activity [10]: Active
Activity [11]: Active
Activity [12]: Active
Activity [13]: Active
Activity [14]: Active
Activity [15]: Active
Activity [16]: Active
Activity [17]: Active
Activity [18]: Active
Activity [19]: Active
Structure (SMILES): C=CC(=O)Nc1ccccc1Nc1nc(Nc2ccc(N3CCN(CCOCCOCCOCCNC(=O)CCCC[C@@H]4SC[C@@H]5NC(=O)N[C@@H]54)CC3)cc2)ncc1Cl
Activity (NCI-H23): Active
